Where “and” joins values, the source holds several entries; their conditions need not be identical. Equal entries are not always repeated. Toxic doses and inconclusive results are not listed.
Test system: CD2F1 mice, L1210 leukemia sc, survival T/C
Assay: NCI In Vivo Anticancer Drug Screen. Data for tumor model L1210 Leukemia (subcutaneous) in CD2F1 (CDF1) mice
Settings: endpoint: median survival time, higher = longer survival
In short: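 Transplantable tumor-bearing mice were treated with compound; survival or tumor size measured and expressed as treated-group value (T) divided by vehicle-treated control value (C).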

[1] = dose: 1.25 mg/kg/injection, schedule: Q01DX009 (sc), vehicle: saline

## N[C@@H](Cc1ccc(N(CCCl)CCCl)cc1)C(=O)O
dose: 0.31 mg/kg/injection, schedule: Q01DX009 (ip), vehicle: saline
  T/C: 96 % of control
dose: 0.31 mg/kg/injection, schedule: Q01DX009 (sc), vehicle: saline
  T/C: 100 % of control
dose: 0.62 mg/kg/injection, schedule: Q01DX009 (ip), vehicle: saline
  T/C: 104 % of control
dose: 0.62 mg/kg/injection, schedule: Q01DX009 (sc), vehicle: saline
  T/C: 104 % of control
dose: 0.63 mg/kg/injection, schedule: Q01DX009 (ip), vehicle: saline
  T/C: 99 % of control
dose: 1.0 mg/kg/injection, schedule: Q01DX009 (ip), vehicle: suspension in saline
  T/C: 121 % of control
dose: 1.0 mg/kg/injection, schedule: Q01DX009 (sc), vehicle: saline with Tween-80
  T/C: 105 % of control and 108 % of control
dose: 1.25 mg/kg/injection, schedule: Q01DX009 (ip), vehicle: saline
  T/C: 112 % of control and 113 % of control and 121 % of control
[1]
  T/C: 115 % of control and 121 % of control
dose: 2.0 mg/kg/injection, schedule: Q01DX009 (sc), vehicle: saline with Tween-80
  T/C: 110 % of control and 124 % of control
dose: 2.5 mg/kg/injection, schedule: Q01DX009 (ip), vehicle: saline
  T/C: 124 % of control
dose: 3.0 mg/kg/injection, schedule: Q01DX009 (ip), vehicle: saline
  T/C: 153 % of control
dose: 3.5 mg/kg/injection, schedule: Q01DX009 (ip), vehicle: saline
  T/C: 168 % of control
dose: 4.0 mg/kg/injection, schedule: Q01DX009 (ip), vehicle: saline
  T/C: 173 % of control
dose: 4.0 mg/kg/injection, schedule: Q01DX009 (ip), vehicle: suspension in saline
  T/C: 169 % of control
dose: 4.0 mg/kg/injection, schedule: Q01DX009 (sc), vehicle: saline with Tween-80
  T/C: 163 % of control
dose: 4.5 mg/kg/injection, schedule: Q01DX009 (ip), vehicle: saline
  T/C: 169 % of control
dose: 5.0 mg/kg/injection, schedule: Q01DX009 (sc), vehicle: saline
  T/C: 153 % of control and 156 % of control
dose: 5.3 mg/kg/injection, schedule: Q01DX009 (sc), vehicle: saline
  T/C: 161 % of control
dose: 7.5 mg/kg/injection, schedule: Q01DX009 (sc), vehicle: saline
  T/C: 104 % of control
dose: 8.0 mg/kg/injection, schedule: Q01DX009 (ip), vehicle: suspension in saline
  T/C: 88 % of control
dose: 8.0 mg/kg/injection, schedule: Q01DX009 (sc), vehicle: saline with Tween-80
  T/C: 168 % of control
dose: 10.0 mg/kg/injection, schedule: Q01DX009 (sc), vehicle: saline
  T/C: 98 % of control
dose: 16.0 mg/kg/injection, schedule: Q01DX009 (sc), vehicle: saline with Tween-80
  T/C: 118 % of control and 87 % of control
dose: 18.0 mg/kg/injection, schedule: Q01DX009 (sc), vehicle: saline
  T/C: 110 % of control
dose: 32.0 mg/kg/injection, schedule: Q01DX009 (sc), vehicle: saline with Tween-80
  T/C: 107 % of control
dose: 64.0 mg/kg/injection, schedule: Q01DX009 (sc), vehicle: saline with Tween-80
  T/C: 108 % of control

## O=C(Nc1ccc(NC2=NCCN2)cc1)c1cccc(C(=O)Nc2ccc(NC3=NCCN3)cc2)c1
dose: 8.4 mg/kg/injection, schedule: Q01DX Z (sc), vehicle: water
  T/C: 110 % of control
dose: 14.0 mg/kg/injection, schedule: Q01DX Z (sc), vehicle: water
  T/C: 100 % of control
dose: 23.0 mg/kg/injection, schedule: Q01DX Z (sc), vehicle: water
  T/C: 105 % of control
dose: 39.0 mg/kg/injection, schedule: Q01DX Z (sc), vehicle: water
  T/C: 110 % of control

## CS(=O)(=O)OCCCCOS(C)(=O)=O
dose: 8.4 mg/kg/injection, schedule: Q01DX Z (sc), vehicle: methylcellulose (MC)
  T/C: 100 % of control
dose: 14.0 mg/kg/injection, schedule: Q01DX Z (sc), vehicle: methylcellulose (MC)
  T/C: 100 % of control
dose: 23.0 mg/kg/injection, schedule: Q01DX Z (sc), vehicle: methylcellulose (MC)
  T/C: 100 % of control
dose: 39.0 mg/kg/injection, schedule: Q01DX Z (sc), vehicle: methylcellulose (MC)
  T/C: 100 % of control
dose: 65.0 mg/kg/injection, schedule: Q01DX Z (sc), vehicle: methylcellulose (MC)
  T/C: 100 % of control
dose: 108.0 mg/kg/injection, schedule: Q01DX Z (sc), vehicle: methylcellulose (MC)
  T/C: 100 % of control

## Nc1ncnc2c1ncn2C(C=O)OC(C=O)CO (stereo unspecified)
dose: 14.0 mg/kg/injection, schedule: Q01DX Z (sc), vehicle: carboxymethylcellulose (CMC)
  T/C: 100 % of control
dose: 23.0 mg/kg/injection, schedule: Q01DX Z (sc), vehicle: carboxymethylcellulose (CMC)
  T/C: 105 % of control
dose: 39.0 mg/kg/injection, schedule: Q01DX Z (sc), vehicle: carboxymethylcellulose (CMC)
  T/C: 100 % of control
dose: 108.0 mg/kg/injection, schedule: Q01DX Z (sc), vehicle: carboxymethylcellulose (CMC)
  T/C: 111 % of control
dose: 180.0 mg/kg/injection, schedule: Q01DX Z (sc), vehicle: carboxymethylcellulose (CMC)
  T/C: 100 % of control

## CC[C@]1(O)C[C@H]2CN(CCc3c([nH]c4ccccc34)[C@@](C(=O)OC)(c3cc4c(cc3OC)N(C=O)[C@H]3[C@@](O)(C(=O)OC)[C@H](OC(C)=O)[C@]5(CC)C=CCN6CC[C@]43[C@@H]65)C2)C1
dose: 0.15 mg/kg/injection, schedule: Q01DX009 (ip), vehicle: saline
  T/C: 98 % of control
dose: 0.2 mg/kg/injection, schedule: Q01DX009 (ip), vehicle: saline
  T/C: 101 % of control
dose: 0.25 mg/kg/injection, schedule: Q01DX009 (ip), vehicle: saline
  T/C: 98 % of control
dose: 0.25 mg/kg/injection, schedule: Q01DX009 (sc), vehicle: saline
  T/C: 113 % of control
dose: 0.5 mg/kg/injection, schedule: Q01DX009 (sc), vehicle: saline
  T/C: 108 % of control
dose: 0.75 mg/kg/injection, schedule: Q01DX009 (sc), vehicle: saline
  T/C: 104 % of control and 92 % of control
dose: 1.0 mg/kg/injection, schedule: Q01DX009 (sc), vehicle: saline
  T/C: 102 % of control
dose: 1.25 mg/kg/injection, schedule: Q01DX001 (iv), vehicle: water
  T/C: 120 % of control
dose: 1.25 mg/kg/injection, schedule: Q01DX001 (sc), vehicle: water
  T/C: 120 % of control
[1]
  T/C: 111 % of control
dose: 1.5 mg/kg/injection, schedule: Q01DX009 (sc), vehicle: saline
  T/C: 107 % of control
dose: 2.5 mg/kg/injection, schedule: Q01DX001 (iv), vehicle: water
  T/C: 120 % of control
dose: 63.0 micrograms/kg/injection, schedule: Q01DX009 (ip), vehicle: saline
  T/C: 101 % of control
dose: 63.0 micrograms/kg/injection, schedule: Q01DX009 (sc), vehicle: saline
  T/C: 103 % of control
dose: 125.0 micrograms/kg/injection, schedule: Q01DX009 (ip), vehicle: saline
  T/C: 98 % of control
dose: 125.0 micrograms/kg/injection, schedule: Q01DX009 (sc), vehicle: saline
  T/C: 103 % of control
dose: 250.0 micrograms/kg/injection, schedule: Q01DX009 (ip), vehicle: saline
  T/C: 96 % of control
dose: 250.0 micrograms/kg/injection, schedule: Q01DX009 (sc), vehicle: saline
  T/C: 107 % of control
dose: 500.0 micrograms/kg/injection, schedule: Q01DX009 (ip), vehicle: saline
  T/C: 96 % of control
dose: 500.0 micrograms/kg/injection, schedule: Q01DX009 (sc), vehicle: saline
  T/C: 114 % of control

## CC(=O)[C@H]1CC[C@H]2[C@@H]3C[C@H](C)C4=CC(=O)CC[C@]4(C)[C@H]3C(=O)C[C@]12C
dose: 20.0 mg/kg/injection, schedule: Q01DX009 (ip), vehicle: saline with Tween-80
  T/C: 94 % of control
dose: 20.0 mg/kg/injection, schedule: Q01DX009 (sc), vehicle: saline with Tween-80
  T/C: 97 % of control
dose: 40.0 mg/kg/injection, schedule: Q01DX009 (ip), vehicle: saline with Tween-80
  T/C: 93 % of control
dose: 40.0 mg/kg/injection, schedule: Q01DX009 (sc), vehicle: saline with Tween-80
  T/C: 98 % of control
dose: 80.0 mg/kg/injection, schedule: Q01DX009 (ip), vehicle: saline with Tween-80
  T/C: 93 % of control
dose: 80.0 mg/kg/injection, schedule: Q01DX009 (sc), vehicle: saline with Tween-80
  T/C: 101 % of control
dose: 160.0 mg/kg/injection, schedule: Q01DX009 (ip), vehicle: saline with Tween-80
  T/C: 93 % of control
dose: 160.0 mg/kg/injection, schedule: Q01DX009 (sc), vehicle: saline with Tween-80
  T/C: 98 % of control
dose: 320.0 mg/kg/injection, schedule: Q01DX009 (ip), vehicle: saline with Tween-80
  T/C: 96 % of control
dose: 320.0 mg/kg/injection, schedule: Q01DX009 (sc), vehicle: saline with Tween-80
  T/C: 105 % of control
dose: 640.0 mg/kg/injection, schedule: Q01DX009 (sc), vehicle: saline with Tween-80
  T/C: 109 % of control

## C[C@]12CC[C@H](OC3OC(CO)C(O)C(O)C3O)C[C@H]1CC[C@@H]1[C@@H]2CC[C@]2(C)[C@@H](C3=CCOC3=O)CC[C@]12O (stereo partly specified)
dose: 3.0 mg/kg/injection, schedule: Q01DX Z (sc), vehicle: saline
  T/C: 110 % of control
dose: 5.0 mg/kg/injection, schedule: Q01DX Z (sc), vehicle: saline
  T/C: 110 % of control
dose: 8.4 mg/kg/injection, schedule: Q01DX Z (sc), vehicle: saline
  T/C: 110 % of control
